# From ChEMBL document CHEMBL4673260, “Pyridine alkaloids with activity in the central nervous system” (Bioorg Med Chem, 2020)
# pEC50, pIC50, pKi: −log10 of the molar value.
# How the values were obtained:
# Acetylcholinesterase [1] = molecular target: T1, Acetylcholinesterase (Homo sapiens, UniProt P22303)
# [2] = molecular target: T2, Neuronal acetylcholine receptor; alpha4/beta2 (Rattus norvegicus) (UniProt P09483+P12390); test: Agonist activity at rat alpha4beta2 expressed in Xenopus oocytes assessed as peak activation at 100 uM relative to control; assay type: cell-based; conditions: Oocyte, filed as agonist
# [3] = molecular target: Neuronal acetylcholine receptor subunit alpha-7 (Homo sapiens, UniProt P36544); conditions: filed as agonist
# Sequence of Neuronal acetylcholine receptor subunit alpha-7 (Homo sapiens, UniProt P36544) (P36544 whole entry): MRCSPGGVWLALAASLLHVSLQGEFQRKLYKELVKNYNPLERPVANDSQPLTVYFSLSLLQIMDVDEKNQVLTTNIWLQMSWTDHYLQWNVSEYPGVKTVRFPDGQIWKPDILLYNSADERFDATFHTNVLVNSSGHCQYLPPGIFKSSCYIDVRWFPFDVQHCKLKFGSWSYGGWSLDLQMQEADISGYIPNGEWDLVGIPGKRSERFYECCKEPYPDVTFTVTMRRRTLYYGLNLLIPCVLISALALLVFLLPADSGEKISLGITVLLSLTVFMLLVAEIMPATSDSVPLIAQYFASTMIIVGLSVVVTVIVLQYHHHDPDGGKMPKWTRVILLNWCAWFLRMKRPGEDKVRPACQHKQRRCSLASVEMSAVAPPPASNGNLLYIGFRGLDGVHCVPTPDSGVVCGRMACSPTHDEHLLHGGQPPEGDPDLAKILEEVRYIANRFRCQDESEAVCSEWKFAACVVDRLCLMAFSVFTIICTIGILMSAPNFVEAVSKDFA
# Description: Agonist activity at human alpha7 nAChR (unknown origin)
# [4] = molecular target: Neuronal acetylcholine receptor; alpha3/beta4 (Homo sapiens) (UniProt P30926+P32297); test: Agonist activity at human alpha3beta4 nAChR expressed in mouse/rat hybrid F11 cells assessed as increase in rubidium-86 efflux; assay type: cell-based; conditions: filed as agonist
# Torpedo = test: Agonist activity at Torpedo alpha1beta1deltagamma nACHR; conditions: filed as agonist
# [5] = molecular target: T2, Neuronal acetylcholine receptor; alpha4/beta2 (Rattus norvegicus); test: Agonist activity at alpha4beta2 nAChR in rat thalamic synaptosomes assessed as 86Rb efflux relative to tetramethylammonium; assay type: subcellular; conditions: Thalamus, filed as agonist
# [6] = molecular target: T3, Neuronal acetylcholine receptor; alpha4/beta2 (Homo sapiens, UniProt P17787+P43681); test: Agonist activity at human brain alpha4beta2 nAChR expressed in CHO cells assessed as maximal receptor response by patch clamp electrophysiological assay relative to control; assay type: cell-based; conditions: filed as agonist
# T3 sequence (P17787 whole entry): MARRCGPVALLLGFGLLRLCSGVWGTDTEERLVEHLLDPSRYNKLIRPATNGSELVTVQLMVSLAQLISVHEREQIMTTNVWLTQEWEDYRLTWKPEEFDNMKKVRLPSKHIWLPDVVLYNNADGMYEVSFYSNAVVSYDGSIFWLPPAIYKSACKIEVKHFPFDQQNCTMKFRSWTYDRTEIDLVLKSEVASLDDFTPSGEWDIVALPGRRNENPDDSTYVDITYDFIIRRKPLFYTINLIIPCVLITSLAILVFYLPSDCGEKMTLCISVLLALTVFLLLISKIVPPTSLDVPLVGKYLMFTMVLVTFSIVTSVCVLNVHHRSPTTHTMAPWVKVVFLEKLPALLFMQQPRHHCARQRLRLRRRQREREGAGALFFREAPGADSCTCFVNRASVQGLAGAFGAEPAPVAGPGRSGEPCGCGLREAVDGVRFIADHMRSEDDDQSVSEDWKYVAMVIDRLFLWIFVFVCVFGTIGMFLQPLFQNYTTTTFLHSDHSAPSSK
# T3 sequence (P43681 whole entry): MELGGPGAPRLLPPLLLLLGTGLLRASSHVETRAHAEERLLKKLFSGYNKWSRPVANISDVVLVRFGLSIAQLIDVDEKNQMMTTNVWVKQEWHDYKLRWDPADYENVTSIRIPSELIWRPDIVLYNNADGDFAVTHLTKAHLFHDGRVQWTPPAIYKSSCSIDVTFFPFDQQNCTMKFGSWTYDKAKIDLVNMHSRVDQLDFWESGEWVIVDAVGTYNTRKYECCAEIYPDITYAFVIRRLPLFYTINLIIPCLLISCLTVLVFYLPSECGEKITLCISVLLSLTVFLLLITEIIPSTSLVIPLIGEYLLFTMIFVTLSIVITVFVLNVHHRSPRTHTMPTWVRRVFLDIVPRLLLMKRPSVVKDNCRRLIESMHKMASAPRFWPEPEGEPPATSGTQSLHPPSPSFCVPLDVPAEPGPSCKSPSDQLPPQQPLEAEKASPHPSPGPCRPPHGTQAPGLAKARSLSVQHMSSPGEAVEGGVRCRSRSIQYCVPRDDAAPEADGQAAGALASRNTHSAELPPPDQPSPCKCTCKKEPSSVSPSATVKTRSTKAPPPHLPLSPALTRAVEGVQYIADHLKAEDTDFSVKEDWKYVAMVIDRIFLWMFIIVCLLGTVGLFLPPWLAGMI
# Rattus norvegicus [7] = species on record: Rattus norvegicus; test: Agonist activity at nAChR in rat striatal synaptosomes assessed as [3H]dopamine release relative to tetramethylammonium; assay type: subcellular; conditions: Striatum, filed as agonist
# [8] = molecular target: Acetylcholinesterase (Electrophorus electricus) (UniProt O42275); test: Inhibition of electric eel acetylcholinesterase using acetylthiocholine iodide as substrate by Ellman's method relative to control; conditions: concentration not given here
# Sequence of Acetylcholinesterase (Electrophorus electricus) (O42275 24-633 limits assumed): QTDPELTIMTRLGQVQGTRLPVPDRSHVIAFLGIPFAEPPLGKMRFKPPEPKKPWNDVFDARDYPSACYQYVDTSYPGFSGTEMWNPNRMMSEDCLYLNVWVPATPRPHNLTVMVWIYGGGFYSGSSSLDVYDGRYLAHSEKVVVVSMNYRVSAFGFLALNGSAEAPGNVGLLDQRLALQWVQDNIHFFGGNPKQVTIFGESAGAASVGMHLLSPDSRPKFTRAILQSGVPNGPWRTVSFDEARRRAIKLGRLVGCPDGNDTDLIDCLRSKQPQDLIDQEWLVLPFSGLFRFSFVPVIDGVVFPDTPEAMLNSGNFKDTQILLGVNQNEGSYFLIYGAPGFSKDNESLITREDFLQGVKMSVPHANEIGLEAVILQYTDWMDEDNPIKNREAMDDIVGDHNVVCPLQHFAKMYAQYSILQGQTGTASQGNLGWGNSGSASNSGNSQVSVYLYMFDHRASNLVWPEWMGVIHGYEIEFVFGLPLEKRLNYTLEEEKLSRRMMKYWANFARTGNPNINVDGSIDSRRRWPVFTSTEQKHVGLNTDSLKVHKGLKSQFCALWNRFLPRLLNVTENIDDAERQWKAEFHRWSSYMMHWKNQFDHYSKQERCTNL
# [9] = molecular target: T3, Neuronal acetylcholine receptor; alpha4/beta2; test: Agonist activity at human alpha4beta2 nAChR expressed in Xenopus oocytes; assay type: cell-based, Oocyte
# [10] = molecular target: Neuronal acetylcholine receptor; alpha4/beta2 (Rattus norvegicus, UniProt P09483+P12390); test: Displacement of [3H]-cytisine from rat brain membrane alpha4beta2 nAChR; assay type: cell membranes
# [11] = molecular target: T3, Neuronal acetylcholine receptor; alpha4/beta2; test: Agonist activity at human alpha4beta2 nAChR expressed in Xenopus oocytes relative to control; assay type: cell-based; conditions: Oocyte, filed as agonist
# [12] = molecular target: T4, Muscarinic acetylcholine receptor M1 (Rattus norvegicus) (UniProt P08482); conditions: filed as antagonist, time 40.0 min
# T4 sequence (whole entry): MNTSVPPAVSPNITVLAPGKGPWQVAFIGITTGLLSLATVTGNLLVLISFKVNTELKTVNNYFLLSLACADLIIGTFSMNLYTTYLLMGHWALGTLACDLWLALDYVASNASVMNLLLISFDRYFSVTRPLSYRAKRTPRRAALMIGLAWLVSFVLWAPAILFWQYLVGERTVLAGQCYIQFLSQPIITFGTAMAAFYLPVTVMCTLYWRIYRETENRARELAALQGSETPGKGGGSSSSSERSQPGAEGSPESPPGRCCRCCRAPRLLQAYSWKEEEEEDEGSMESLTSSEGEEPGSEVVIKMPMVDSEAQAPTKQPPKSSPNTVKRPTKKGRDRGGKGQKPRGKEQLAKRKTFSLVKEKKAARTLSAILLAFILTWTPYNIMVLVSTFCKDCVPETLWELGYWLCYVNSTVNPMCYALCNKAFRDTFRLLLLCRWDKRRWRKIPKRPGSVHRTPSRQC
# [13] = molecular target: T4, Muscarinic acetylcholine receptor M1 (Rattus norvegicus); conditions: filed as antagonist, time 60.0 min
# [14] = molecular target: T3, Neuronal acetylcholine receptor; alpha4/beta2
# Description: Displacement of [3H]cytisine from human alpha4beta2 nAChR by radioligand competition analysis
# [15] = molecular target: T3, Neuronal acetylcholine receptor; alpha4/beta2; remark: listed apart in the source
# Description: Displacement of [3H]cytisine from human alpha4beta2 nAChR by Cheng-Prusoff equation analysis
# [16] = molecular target: T5, Muscarinic acetylcholine receptor M2 (Rattus norvegicus, UniProt P10980); test: Inhibition of [3H]-methyl-quinuclidinyl benzilate binding to rat heart muscarinic M2 receptor by radioligand binding assay
# T5 sequence (P10980 whole entry): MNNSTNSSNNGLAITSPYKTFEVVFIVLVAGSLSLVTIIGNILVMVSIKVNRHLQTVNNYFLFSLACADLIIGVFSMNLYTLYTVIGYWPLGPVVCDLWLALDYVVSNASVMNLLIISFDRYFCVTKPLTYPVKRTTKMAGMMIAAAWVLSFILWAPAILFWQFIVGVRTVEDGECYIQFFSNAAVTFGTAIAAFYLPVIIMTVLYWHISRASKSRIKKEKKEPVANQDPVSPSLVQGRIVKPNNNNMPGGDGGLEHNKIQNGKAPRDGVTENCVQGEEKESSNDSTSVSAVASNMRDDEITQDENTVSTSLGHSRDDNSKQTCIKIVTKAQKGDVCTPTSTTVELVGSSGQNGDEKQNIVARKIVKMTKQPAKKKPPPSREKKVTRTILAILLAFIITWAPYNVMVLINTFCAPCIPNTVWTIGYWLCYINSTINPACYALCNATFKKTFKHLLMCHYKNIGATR
# [17] = molecular target: T6, Muscarinic acetylcholine receptor M1 (Rattus norvegicus, UniProt P08482); test: Inhibition of [3H]-methyl-quinuclidinyl benzilate binding to rat brain muscarinic M1 receptor by radioligand binding assay
# T6 sequence (P08482 whole entry): T4 sequence (whole entry)
# [18] = molecular target: Muscarinic acetylcholine receptor M3 (Rattus norvegicus, UniProt P08483); test: Inhibition of [3H]-methyl-quinuclidinyl benzilate binding to rat salivary gland muscarinic M3 receptor by radioligand binding assay
# Sequence of Muscarinic acetylcholine receptor M3 (P08483 whole entry): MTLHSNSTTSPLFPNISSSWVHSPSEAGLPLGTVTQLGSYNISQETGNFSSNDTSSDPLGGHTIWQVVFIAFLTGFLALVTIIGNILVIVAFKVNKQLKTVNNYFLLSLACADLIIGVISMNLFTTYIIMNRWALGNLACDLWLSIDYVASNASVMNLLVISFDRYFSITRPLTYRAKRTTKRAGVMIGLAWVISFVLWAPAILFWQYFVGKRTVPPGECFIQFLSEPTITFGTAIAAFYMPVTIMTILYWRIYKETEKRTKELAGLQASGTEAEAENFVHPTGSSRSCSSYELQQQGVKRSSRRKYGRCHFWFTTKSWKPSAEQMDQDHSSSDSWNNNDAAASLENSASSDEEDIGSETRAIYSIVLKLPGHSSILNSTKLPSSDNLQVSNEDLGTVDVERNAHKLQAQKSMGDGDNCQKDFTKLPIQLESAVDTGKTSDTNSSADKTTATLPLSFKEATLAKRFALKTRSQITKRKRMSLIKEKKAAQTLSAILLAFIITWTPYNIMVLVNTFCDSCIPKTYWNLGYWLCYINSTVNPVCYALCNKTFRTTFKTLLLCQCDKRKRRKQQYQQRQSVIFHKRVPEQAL
# Cavia porcellus [19] = species on record: Cavia porcellus; test: Inhibition of voltage-dependent calcium channel mediated calcium influx in guinea-pig ileum assessed as Cacl2 induced maximal smooth muscle contraction at 490 uM incubated for 15 mins relative to control; assay type: tissue-based
# Cavia porcellus [20] = species on record: Cavia porcellus; test: Inhibition of voltage-dependent calcium channel mediated calcium influx in guinea-pig ileum assessed as Cacl2 induced maximal smooth muscle contraction at 120 uM incubated for 15 mins relative to control; assay type: tissue-based
# [21] = Neurotoxicity in ip dosed mouse assessed as induction of epileptic convulsion; assay type: toxicity, organism-based; conditions: in vivo
# [22] = Neurotoxicity in ip dosed mouse assessed as mouse death; assay type: toxicity, organism-based; conditions: in vivo
# [23] = Neurotoxicity in ip dosed mouse assessed as induction of hindlimb tonic extension; assay type: toxicity, organism-based; conditions: in vivo
# Acetylcholinesterase [24] = molecular target: T1, Acetylcholinesterase; test: Inhibition of acetylcholinesterase (unknown origin) using acetylthiocholine iodide as substrate incubated for 30 mins by Ellman's coupled enzyme assay
# [25] = molecular target: Neuronal acetylcholine receptor subunit alpha-7 (Rattus norvegicus, UniProt Q05941)
# Sequence of Neuronal acetylcholine receptor subunit alpha-7 (Rattus norvegicus, UniProt Q05941) (Q05941 whole entry): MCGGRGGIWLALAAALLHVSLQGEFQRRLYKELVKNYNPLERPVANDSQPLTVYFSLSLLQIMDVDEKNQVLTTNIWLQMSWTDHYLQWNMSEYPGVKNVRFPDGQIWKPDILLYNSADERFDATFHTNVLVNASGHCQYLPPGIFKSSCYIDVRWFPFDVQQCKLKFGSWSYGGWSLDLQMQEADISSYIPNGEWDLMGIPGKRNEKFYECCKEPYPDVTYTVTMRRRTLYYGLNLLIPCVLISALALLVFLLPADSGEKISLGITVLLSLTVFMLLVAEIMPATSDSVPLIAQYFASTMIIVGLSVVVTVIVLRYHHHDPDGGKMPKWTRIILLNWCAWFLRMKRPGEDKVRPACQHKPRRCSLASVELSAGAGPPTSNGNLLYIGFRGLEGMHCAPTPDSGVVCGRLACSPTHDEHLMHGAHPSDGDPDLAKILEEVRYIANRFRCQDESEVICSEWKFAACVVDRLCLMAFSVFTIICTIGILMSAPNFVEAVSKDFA
# Description: Displacement of [3H]MLA from rat alpha7 nAChR by liquid scintillation counting
# Rattus norvegicus [26] = species on record: Rattus norvegicus; test: Displacement of [3H]-Cytisine from rat cerebral cortex nAChR at 10 uM by radioligand binding assay relative to control; conditions: filed as antagonist
# [27] = molecular target: T4, Muscarinic acetylcholine receptor M1 (Rattus norvegicus); test: Displacement of [3H]-Pirenzepine from rat cerebral cortex Muscarinic M1 receptor at 10 uM by radioligand binding assay relative to control; conditions: filed as antagonist
# [28] = molecular target: T3, Neuronal acetylcholine receptor; alpha4/beta2; test: Agonist activity at human alpha4beta2 nAChR expressed in human K177 cell membrane assessed as increase in 86-rubidium efflux incubated for 5 mins by gamma counting method; assay type: cell membranes; conditions: K177cell line, filed as agonist
# T1 sequence (P22303 whole entry): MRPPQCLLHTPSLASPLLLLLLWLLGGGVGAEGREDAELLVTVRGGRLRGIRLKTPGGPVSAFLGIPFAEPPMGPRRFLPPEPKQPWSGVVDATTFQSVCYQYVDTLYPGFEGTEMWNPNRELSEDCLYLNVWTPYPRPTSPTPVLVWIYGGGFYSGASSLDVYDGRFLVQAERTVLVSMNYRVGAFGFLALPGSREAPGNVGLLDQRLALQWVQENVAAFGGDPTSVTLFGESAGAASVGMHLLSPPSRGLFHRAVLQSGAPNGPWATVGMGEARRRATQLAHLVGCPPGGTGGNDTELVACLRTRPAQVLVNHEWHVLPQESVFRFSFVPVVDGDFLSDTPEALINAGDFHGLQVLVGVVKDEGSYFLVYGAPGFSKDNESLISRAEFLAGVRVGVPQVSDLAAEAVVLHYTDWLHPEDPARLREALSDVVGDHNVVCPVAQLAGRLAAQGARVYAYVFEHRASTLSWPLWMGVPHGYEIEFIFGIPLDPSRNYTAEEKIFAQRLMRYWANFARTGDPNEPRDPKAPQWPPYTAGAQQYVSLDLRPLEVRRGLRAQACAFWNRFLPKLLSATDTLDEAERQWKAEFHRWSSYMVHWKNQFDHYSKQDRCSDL
smiles,measurement,setting,value
CCCCCCCCCCCCCCCCc1cc[n+](C)cc1C(=O)[O-],pIC50,Acetylcholinesterase [1],2.59
CN1CCC[C@H]1c1cccnc1,Activity,[2],333%
same,ED50,[3],40 µM
same,ED50,[4],14 µM
same,ED50,Torpedo,250 µM
same,Emax,[5],87%
same,Imax,[6],159%
same,Emax,Rattus norvegicus [7],113%
O=C(O)[C@H]1CCCC[C@@H]1c1c[nH]c(=O)cc1O,inhibition,[8],57.5%
C1=C[C@@H](c2cccnc2)NCC1,pEC50,[9],6.00
same,pKi,[10],6.97
same,Imax,[11],78.7%
Clc1ccc(C2CC3CCC2N3)cn1 (stereo in doubt; (-)),Kapp,[12],1.4 µM
same,Kapp,[13],16 µM
C[C@@H]1CC2NCC3c4cccc(=O)n4CC2C31 (stereo partly drawn),pIC50,[14],8.32
same,pKi,[15],8.80
CCCCCCCCCCCCCCCCc1ccc(C(=O)[O-])c[n+]1C,pIC50,Acetylcholinesterase [1],2.55
c1cc2c[n+](c1)CCCCCCCCCCCCc1ccc[n+](c1)CCCCCCCCCCCC2,pIC50,[16],4.44
same,pIC50,[17],4.02
same,pIC50,[18],4.01
C[C@@H]1CC2N(C)CC3c4cccc(=O)n4CC2(O)C31 (stereo partly drawn),pIC50,[14],6.59
same,pKi,[15],7.06
c1cc2c[n+](c1)CCCCCCCCCCCCCCc1ccc[n+](c1)CCCCCCCCCCCCC2,pIC50,[16],3.76
same,pIC50,[17],3.56
same,pIC50,[18],3.47
COC(=O)c1cncc2c1C[C@H](O)[C@@H]2C,inhibition,Cavia porcellus [19],45%
same,inhibition,Cavia porcellus [20],90%
O=C(O)C[C@@H]1[C@@H](C(=O)O)NC[C@@H]1c1ccc(=O)[nH]c1,LD,[21],10 mg/kg
same,LD,[22],10 mg/kg
same,LD,[23],10 mg/kg
C[C@@H]1CC[C@H]2[C@H](C(=O)c3c(O)c([C@@]4(O)CC[C@@H](O)[C@H]5O[C@H]54)cn(O)c3=O)[C@H](C)C=C[C@@H]2C1,pIC50,Acetylcholinesterase [24],4.41
O=c1cccc2n1C[C@@H]1CNC[C@H]2C1 [CYTISINICLINE],pKi,[25],5.77
same,pKi,[15],9.55
CCCCCCCCCCCCCCCCc1c(C(=O)[O-])ccc[n+]1C,pIC50,Acetylcholinesterase [1],2.68
c1cc2c[n+](c1)CCCCCCCCCCCCCc1ccc[n+](c1)CCCCCCCCCCCCC2,pIC50,[16],4.14
same,pIC50,[17],3.79
same,pIC50,[18],3.71
Clc1ccc(C2CC3CCC2N3)cn1 (stereo in doubt; (+)),inhibition,Rattus norvegicus [26],98%
same,ED50,[3],1.1 µM
same,ED50,[4],0.019 µM
same,ED50,Torpedo,1.6 µM
same,Kapp,[12],1.6 µM
same,Kapp,[13],6.9 µM
same,inhibition,[27],70%
same,ED50,[28],0.017 µM
O=C(O)C[C@@H]1[C@@H](C(=O)O)NC[C@@H]1c1ccc(=O)[nH]c1C(=O)O,LD,[21],8 mg/kg
same,LD,[22],8 mg/kg
same,LD,[23],8 mg/kg
